Tests used:
[1] = biological target: T1, Lanosterol 14-alpha demethylase (Aspergillus, UniProt B8NUK6+G4WW85+Q9P8R0); experiment: Binding affinity to Aspergillus fumigatus CYP51
T1 sequence (B8NUK6 whole entry): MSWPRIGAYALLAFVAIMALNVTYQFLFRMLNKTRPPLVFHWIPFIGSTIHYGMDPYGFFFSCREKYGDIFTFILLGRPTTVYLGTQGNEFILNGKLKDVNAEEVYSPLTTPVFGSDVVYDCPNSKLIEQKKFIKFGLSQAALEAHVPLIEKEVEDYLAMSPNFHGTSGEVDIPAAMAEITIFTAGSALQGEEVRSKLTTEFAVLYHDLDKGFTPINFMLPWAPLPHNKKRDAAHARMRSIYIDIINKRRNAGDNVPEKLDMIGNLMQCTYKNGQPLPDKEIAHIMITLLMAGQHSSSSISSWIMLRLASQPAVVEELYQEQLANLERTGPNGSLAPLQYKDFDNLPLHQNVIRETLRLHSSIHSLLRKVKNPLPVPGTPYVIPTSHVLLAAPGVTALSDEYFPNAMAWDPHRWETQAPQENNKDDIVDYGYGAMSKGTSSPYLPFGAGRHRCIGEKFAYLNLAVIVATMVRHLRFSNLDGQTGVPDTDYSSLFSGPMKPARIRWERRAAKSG
T1 sequence (Q9P8R0 whole entry): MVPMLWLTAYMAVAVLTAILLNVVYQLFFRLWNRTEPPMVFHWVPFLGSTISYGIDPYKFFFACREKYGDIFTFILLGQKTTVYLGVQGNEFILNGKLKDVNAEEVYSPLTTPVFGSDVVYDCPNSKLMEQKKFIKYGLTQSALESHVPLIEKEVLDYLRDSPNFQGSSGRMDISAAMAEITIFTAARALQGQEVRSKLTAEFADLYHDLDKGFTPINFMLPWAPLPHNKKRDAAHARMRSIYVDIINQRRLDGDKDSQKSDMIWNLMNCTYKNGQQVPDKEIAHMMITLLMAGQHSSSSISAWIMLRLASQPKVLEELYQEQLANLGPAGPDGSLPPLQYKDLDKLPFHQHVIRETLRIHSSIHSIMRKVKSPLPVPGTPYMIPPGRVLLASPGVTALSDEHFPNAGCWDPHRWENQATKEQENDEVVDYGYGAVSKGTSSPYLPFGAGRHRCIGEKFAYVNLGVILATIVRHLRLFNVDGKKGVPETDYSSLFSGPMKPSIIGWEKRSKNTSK
T1 sequence (G4WW85 whole entry): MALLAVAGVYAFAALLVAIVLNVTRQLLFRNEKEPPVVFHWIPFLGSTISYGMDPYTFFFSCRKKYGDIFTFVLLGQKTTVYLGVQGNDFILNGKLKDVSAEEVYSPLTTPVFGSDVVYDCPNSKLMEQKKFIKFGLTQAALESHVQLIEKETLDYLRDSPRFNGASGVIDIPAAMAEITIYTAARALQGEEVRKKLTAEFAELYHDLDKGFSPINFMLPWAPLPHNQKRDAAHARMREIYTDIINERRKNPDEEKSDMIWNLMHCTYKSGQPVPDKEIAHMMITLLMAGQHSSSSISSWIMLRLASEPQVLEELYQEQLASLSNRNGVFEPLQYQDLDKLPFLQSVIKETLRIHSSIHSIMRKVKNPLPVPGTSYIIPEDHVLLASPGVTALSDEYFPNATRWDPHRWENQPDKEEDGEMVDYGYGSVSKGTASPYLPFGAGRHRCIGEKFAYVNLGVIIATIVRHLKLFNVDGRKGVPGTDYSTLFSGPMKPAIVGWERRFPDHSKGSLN

Brain = experiment: Drug level in Swiss albino mouse brain at 5 mg/kg, po after 48 hrs assessed as relative AUC (48 hrs) level relative to plasma drug level by HPLC/MS/MS method; type: ADME, organism-based
Lung [2] = experiment: Drug level in Swiss albino mouse lung at 5 mg/kg, po after 48 hrs assessed as relative Cmax level relative to plasma drug level by HPLC/MS/MS method; type: ADME, organism-based; conditions: in vivo
[3] = Half life in Swiss albino mouse plasma at 5 mg/kg, po measured during 0.5 to 48 hrs post dose by HPLC/MS/MS method; type: ADME, organism-based
Lung [4] = experiment: Drug level in Swiss albino mouse lung at 5 mg/kg, po after 48 hrs assessed as relative AUC (48 hrs) level relative to plasma drug level by HPLC/MS/MS method; type: ADME, organism-based; conditions: other tissue
[5] = biological target: T2, Steroid 17-alpha-hydroxylase/17,20 lyase (Homo sapiens, UniProt P05093); experiment: Inhibition of CYP17 hydroxylase in human hepatocyte microsomes using pregnenolone substrate by HPLC/MS/MS method; type: ADME
T2 sequence (P05093 whole entry): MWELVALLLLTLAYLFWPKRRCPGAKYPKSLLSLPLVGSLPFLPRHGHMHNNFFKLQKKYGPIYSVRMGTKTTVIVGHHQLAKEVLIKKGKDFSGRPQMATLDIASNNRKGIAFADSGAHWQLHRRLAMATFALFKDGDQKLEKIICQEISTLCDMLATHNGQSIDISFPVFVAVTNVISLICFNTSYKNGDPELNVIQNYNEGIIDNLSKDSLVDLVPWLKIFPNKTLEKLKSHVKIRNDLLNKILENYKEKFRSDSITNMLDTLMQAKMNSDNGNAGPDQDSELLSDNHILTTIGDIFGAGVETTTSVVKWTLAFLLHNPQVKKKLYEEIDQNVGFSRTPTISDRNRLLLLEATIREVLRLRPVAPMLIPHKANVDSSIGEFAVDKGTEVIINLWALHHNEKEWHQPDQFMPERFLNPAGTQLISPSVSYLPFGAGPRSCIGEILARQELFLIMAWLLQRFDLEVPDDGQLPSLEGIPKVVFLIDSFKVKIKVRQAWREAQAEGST

[6] = biological target: Lanosterol 14-alpha demethylase (Candida albicans (strain SC5314 / ATCC MYA-2876) (Yeast), UniProt P10613); experiment: Inhibition of CYP51 in Candida albicans assessed as inhibition of microbe growth incubated for 48 hrs by CLSI M27-A3 guideline based method
Sequence of Lanosterol 14-alpha demethylase (Candida albicans (strain SC5314 / ATCC MYA-2876) (Yeast), UniProt P10613) (P10613 whole entry): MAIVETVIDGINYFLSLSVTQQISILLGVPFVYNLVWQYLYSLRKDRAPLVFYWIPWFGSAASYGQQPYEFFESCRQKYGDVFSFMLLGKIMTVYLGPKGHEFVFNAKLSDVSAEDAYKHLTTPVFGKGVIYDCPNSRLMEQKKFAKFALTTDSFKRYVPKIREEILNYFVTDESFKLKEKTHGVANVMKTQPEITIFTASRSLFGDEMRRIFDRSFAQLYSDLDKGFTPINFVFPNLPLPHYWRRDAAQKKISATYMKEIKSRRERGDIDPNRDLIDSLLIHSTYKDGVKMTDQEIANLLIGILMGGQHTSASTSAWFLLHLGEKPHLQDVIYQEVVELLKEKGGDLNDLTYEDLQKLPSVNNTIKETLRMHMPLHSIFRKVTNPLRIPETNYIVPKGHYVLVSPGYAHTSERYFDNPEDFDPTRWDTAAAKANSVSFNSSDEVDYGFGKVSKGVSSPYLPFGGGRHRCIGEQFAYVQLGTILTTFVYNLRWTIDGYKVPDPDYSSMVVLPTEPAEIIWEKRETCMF

[7] = Half life in Swiss albino mouse kidney at 5 mg/kg, po measured during 0.5 to 48 hrs post dose by HPLC/MS/MS method; type: ADME, organism-based

N#Cc1ccc(COc2ccc(C#Cc3ccc(C(F)(F)C(O)(Cn4cnnn4)c4ccc(F)cc4F)nc3)cc2)cc1 (single isomer, unassigned; (+))
Kd [1]: 13 nM | Drug uptake (Brain): 65% | Drug uptake (Lung [2]): 116% | half-life [3]: 1440 min | Drug uptake (Lung [4]): 94% | IC50 [5]: > 100 µM | MIC50 [6]: 7.8 ng/mL | half-life [7]: 960 to 1140 min

— ChEMBL document CHEMBL4052712, “Design and optimization of highly-selective, broad spectrum fungal CYP51 inhibitors” (Bioorg Med Chem Lett, 2017)
